The target of series [1] is RON (Homo sapiens, UniProt Q04912). Particulars: cited from earlier work.
Series [2] has as its target T1, c-Met (Homo sapiens, UniProt P08581). To be noted: cited from earlier work.
The target of series [3] is T2, Met kinase (Homo sapiens, UniProt P08581). In words: Inhibition of HGF-induced Met phosphorylation in MDA-MB-231 cells. Particulars: HGF 50 ng/ml, read-out: HGF stimulated Met phosphorylation (IC50). On the set-up: endogenous in cells; host or cells: MDA-MB-231. It counts as cell-based.
The subject of series [4] is Akt. Briefly: Inhibition of Akt phosphorylation in NCI-H441 cells (western blot, pAkt S473). It counts as cell-based. To be noted: Homo sapiens. The procedure:
(§1) Inhibition of Akt Phosphorylation in MKN-45 or NCI-11441 Cells:
(§2) Akt is a serine-threonine kinase and a downstream marker regulated by c-Met kinase via the PI3K pathway. Once phosphorylated, Akt regulates several end processes including cell survival and growth. Cells were treated with 0−1000 nM of test compounds, lysed, and the proteins separated on a 10% SDS-PAGE. Following separation, proteins were transferred onto a nitrocellulose membrane and detected by chemiluminescence after incubation with pAkt S473 mAb (primary) and rabbit anti-mouse Ab (secondary). Intensity of the bands was determined using ImageJ 1.42q (NIH, USA) and normalized to Actin (loading control).
In general terms: In western blotting, separated proteins are transferred to a membrane and probed.

The target of series [5] is T2, Met kinase. Briefly: MET kinase assay (colorimetric determination of c-Met kinase activity, HTScan Met Kinase Assay Kit). It counts as biochemical. On the set-up: purchased Cell Signalling Technology, Beverly, Mass. To be noted: for IC50: c-Met kinase. The source says:
1. MET Kinase Assay Protocol:
Colorimetric Determination of c-Met Kinase Activity
The receptor tyrosine kinase c-Met is a heterodimeric transmembrane glycoprotein involved in several cellular processes that aid in tumor progression. Phosphorylation of the tyrosine residues in the c-Met kinase domain is critical for its activity and the resulting down-stream effects. The colorimetric assay allows detection of the phosphorylated form of a biotinylated peptide upon activation of human recombinant Met kinase.
MET Kinase Assay Protocol:
c-Met Kinase activity shall be determined using an HTScan® Met Kinase Assay Kit (Cell Signalling Technology, Beverly, Mass.) with modifications. All incubations are carried out at room temperature. Briefly, 12.5 μl of a 4× reaction cocktail (DTT/Kinase buffer containing appropriate quantity of human Met kinase) is added to each well of a 96-well plate containing 12.5 μl pre-diluted compound of interest and incubated for 5 minutes. After the initial incubation, 25 μl/well of 2×ATP/biotinylated peptide is added and incubated for an additional 30 minutes. The reaction is terminated by the addition of 50 μl/well stop buffer (50 mM EDTA, pH 8.0). The reaction mixture (25 μl/well) is then transferred to a streptavidin coated plate (Perkin Elmer, Cat#4009-0010) containing 75 μl dH2O and incubated for 60 minutes. The plate is washed with 200 μl/well wash buffer (1×PBS, 0.05% Tween-20). After washing, 100 μl/well phospho-tyrosine mAb (1:1000 in wash buffer containing 1% BSA) is added and incubated for 60 minutes. After another round of washes, 100 μl/well europium labelled anti-mouse IgG (1:500 in wash buffer containing 1% BSA) is added and incubated for an additional 30 minutes. Following additional washes, 100 μl/well Delfia® enhancement solution (Perkin Elmer, Cat#1244-105) is added and incubated for 45 minutes. Florescence is measured on a microplate reader (BMG Labtech., Germany) at 340 nm (excitation) and 615 nm (emission) for calculating % inhibition. Data generated can be analyzed further using Graphpad Prism (Graphpad software, San Diego Calif.) for determination of IC50.

Series [6] relates to MKN-45 cells. In words: Induction of apoptosis in MKN-45 cells (caspase-3 activity). The format is cell-based, human. Particulars: @ 3 μM, 24 h, caspase-3, percent of maximum response. The procedure:
6. Induction of Apoptosis in MKN-45 Cells:
Induction of Caspase 3 was measured fluorimetrically. Cells were incubated with desired concentrations of the compound for 24 h. After incubation, cells were harvested and counted. An equal number of viable cells per well (0.3×10^6 cells) were used for determination of caspase-3 activity. Increase in apoptosis manifested by an elevation in caspase-3 levels was determined using a Caspase-3 kit from Millipore. Data are expressed as a percent of the maximum response (100%).

Series [7] relates to MKN-45 cells. In words: Inhibition of MKN-45 proliferation (MTT). The format is cell-based, human. To be noted: for GI50 / inhibition at 0.1 µM: Homo sapiens, MKN-45, MKN-45 proliferation; for Inhibition (% Inhibition of MKN-45 proliferation) / inhibition at 0.1 µM: 0.1 μM. The procedure, abridged: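 High-Met human gastric adenocarcinoma MKN-45 cells plated in complete growth medium, compounds added next day and viability read 3 days later by MTT dye reduction.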

Series [8] deals with T1, c-Met. Briefly: Inhibition of c-Met kinase phosphorylation in MKN-45 cells (cell based ELISA). To be noted: 1 h. On the set-up: endogenous in cells; host or cells: MKN-45. The procedure: Inhibition of c-Met Kinase Phosphorylation in MKN-45 Cells:
MKN45 cells are a prototype of “c-Met addicted” cells having constitutively activated c-Met kinase similar to that observed in sub-sects of gastric or hepatocellular cancer patients with dysregulated c-Met kinase activity. Inhibition of Met phosphorylation was determined using a cell based ELISA assay according to the following schedule:
Day 1: MKN-45 cells were plated in 96-well plates in complete growth medium.
Day 2: Inhibitors at the desired concentration were added to the plates and incubated for 1 h and lysed subsequently.
Lysates were transferred to NUNC Maxisorp plates coated with anti-cMet receptor antibody. Phopho-tyrosine mAb and HRP-lined anti-mouse IgG were used as primary and secondary antibodies respectively. Optical density was measured on a microplate reader (BMG Labtech., Germany) at […]. Inhibition of c-Met phosphorylation in this cell line indicates a therapeutic potential for test compounds in patients diagnosed with cancers caused by aberrant c-Met kinase signalling.
For orientation: An ELISA detects its analyte on a solid surface through an enzyme-linked reagent.

Series [9] deals with T1, c-Met. Briefly: Inhibition of c-Met kinase phosphorylation in NCI-H441 cells (cell based ELISA). On the set-up: endogenous in cells; host or cells: NCI-H441. Particulars: 1 h. The procedure:
Inhibition of c-Met Kinase Phosphorylation in NCI—H441 Cells:
Inhibition of Met phosphorylation was determined using a cell based ELISA assay according to the following schedule:
Day 1: NCI—H441 cells were plated in 96-well plates in complete growth medium.
Day 2: Inhibitors at the desired concentration were added to the plates, incubated for 1 h and lysed subsequently. Lysates were transferred to NUNC Maxisorp plates coated with anti-cMet receptor antibody. Phopho-tyrosine mAb and HRP-lined anti-mouse IgG were used as primary and secondary antibodies respectively. Optical density was measured on a microplate reader (BMG Labtech., Germany) at […].

Series [10] deals with Akt. Briefly: Inhibition of Akt phosphorylation in MKN-45 cells (western blot, pAkt S473). To be noted: Homo sapiens. The format is cell-based. Here is the method: as §1, §2

Like-named read-outs stand apart in the source and are kept apart here.

A word on the IC50: it is the midpoint of a concentration-inhibition curve. The inhibition is the drop in the measured response relative to a control, in per cent. High values mean strong suppression, low ones little suppression. Usually GI50 stands for the concentration at which growth is held to half of that of the control. Lower therefore signals greater sensitivity of the cells. As a reminder, the melting point is the temperature of the solid-liquid transition.

T2 sequence (P08581 25-1390): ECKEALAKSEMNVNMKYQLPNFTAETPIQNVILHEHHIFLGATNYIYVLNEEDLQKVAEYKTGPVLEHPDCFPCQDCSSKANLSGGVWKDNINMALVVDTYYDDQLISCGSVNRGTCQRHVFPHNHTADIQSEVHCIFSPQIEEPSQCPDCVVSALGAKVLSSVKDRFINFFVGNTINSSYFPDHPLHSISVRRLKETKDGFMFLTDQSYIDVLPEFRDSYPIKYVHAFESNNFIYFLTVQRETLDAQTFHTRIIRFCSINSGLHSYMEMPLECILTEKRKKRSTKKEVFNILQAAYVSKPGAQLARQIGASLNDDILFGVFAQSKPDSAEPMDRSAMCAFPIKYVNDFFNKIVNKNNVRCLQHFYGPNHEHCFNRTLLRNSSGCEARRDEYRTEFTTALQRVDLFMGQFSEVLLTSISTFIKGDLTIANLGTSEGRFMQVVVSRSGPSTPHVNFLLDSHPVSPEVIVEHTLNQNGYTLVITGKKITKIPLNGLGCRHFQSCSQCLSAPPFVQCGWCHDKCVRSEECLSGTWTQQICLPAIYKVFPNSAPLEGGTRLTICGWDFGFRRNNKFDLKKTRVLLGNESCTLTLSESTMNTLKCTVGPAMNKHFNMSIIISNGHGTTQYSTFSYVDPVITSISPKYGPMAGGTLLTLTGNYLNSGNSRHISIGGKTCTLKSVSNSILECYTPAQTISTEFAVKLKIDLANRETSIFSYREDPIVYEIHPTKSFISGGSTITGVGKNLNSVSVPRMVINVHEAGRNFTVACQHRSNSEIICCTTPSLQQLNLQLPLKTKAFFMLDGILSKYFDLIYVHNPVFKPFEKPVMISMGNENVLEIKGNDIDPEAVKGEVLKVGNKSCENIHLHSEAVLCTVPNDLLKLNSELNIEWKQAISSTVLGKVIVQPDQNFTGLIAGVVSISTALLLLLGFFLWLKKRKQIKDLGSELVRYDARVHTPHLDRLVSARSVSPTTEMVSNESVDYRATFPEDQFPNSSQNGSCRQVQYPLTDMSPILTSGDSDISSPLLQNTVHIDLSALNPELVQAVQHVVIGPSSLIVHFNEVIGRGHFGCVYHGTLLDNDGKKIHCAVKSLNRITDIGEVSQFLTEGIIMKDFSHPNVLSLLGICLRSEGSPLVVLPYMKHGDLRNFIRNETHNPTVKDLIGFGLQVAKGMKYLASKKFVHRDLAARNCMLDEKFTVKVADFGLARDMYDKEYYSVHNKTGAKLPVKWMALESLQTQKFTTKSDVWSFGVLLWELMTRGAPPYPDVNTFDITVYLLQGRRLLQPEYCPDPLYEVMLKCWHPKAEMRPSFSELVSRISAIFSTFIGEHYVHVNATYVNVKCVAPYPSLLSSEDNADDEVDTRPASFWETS
T1 sequence (P08581 25-1390): as above
Sequence of RON (Q04912 25-1400, species assumed): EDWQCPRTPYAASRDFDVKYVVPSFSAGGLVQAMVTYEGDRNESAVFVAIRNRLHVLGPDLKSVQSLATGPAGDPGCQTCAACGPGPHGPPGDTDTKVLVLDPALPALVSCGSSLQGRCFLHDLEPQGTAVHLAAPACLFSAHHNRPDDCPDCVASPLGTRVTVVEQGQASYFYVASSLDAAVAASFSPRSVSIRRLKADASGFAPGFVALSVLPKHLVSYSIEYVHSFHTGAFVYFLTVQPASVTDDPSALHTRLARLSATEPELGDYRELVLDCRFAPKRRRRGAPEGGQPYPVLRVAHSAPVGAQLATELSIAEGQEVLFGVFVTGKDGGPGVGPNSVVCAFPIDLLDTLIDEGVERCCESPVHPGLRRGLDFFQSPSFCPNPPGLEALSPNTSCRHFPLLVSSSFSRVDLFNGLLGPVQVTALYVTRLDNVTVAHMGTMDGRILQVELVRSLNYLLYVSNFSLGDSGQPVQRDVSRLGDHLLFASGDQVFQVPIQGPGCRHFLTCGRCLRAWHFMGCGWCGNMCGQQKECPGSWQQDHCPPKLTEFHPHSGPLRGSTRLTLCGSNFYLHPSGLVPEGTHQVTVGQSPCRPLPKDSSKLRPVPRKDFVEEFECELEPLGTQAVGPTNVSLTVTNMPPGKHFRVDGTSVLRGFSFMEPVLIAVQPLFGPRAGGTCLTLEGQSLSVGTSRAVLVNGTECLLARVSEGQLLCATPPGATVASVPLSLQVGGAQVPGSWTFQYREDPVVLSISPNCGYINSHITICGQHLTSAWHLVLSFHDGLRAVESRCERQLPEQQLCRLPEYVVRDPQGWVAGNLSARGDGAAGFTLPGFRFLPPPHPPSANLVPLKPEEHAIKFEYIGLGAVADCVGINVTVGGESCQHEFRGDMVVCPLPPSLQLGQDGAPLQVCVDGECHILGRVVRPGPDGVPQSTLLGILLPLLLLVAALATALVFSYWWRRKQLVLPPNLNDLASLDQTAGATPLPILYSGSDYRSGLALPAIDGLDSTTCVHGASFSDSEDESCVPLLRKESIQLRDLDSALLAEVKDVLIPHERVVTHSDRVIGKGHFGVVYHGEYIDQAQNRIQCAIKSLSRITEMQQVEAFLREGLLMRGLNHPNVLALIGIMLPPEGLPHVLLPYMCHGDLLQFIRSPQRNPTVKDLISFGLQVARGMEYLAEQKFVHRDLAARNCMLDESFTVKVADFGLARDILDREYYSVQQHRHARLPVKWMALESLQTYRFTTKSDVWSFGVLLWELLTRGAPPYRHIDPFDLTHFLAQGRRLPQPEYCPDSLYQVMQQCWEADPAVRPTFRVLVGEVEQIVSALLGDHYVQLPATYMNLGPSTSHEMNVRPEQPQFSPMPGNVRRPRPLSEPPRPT

With `COc1ccc2c(Oc3ccc(NC(=O)c4c(C)n(CC(C)(C)O)n(-c5ccccc5)c4=O)nc3)ccnc2c1` [AMG-458], the IC50 in [1] is 9 nM; in series [2], 4 nM.

`NC(=O)c1ccc(-c2ccc3nnn(Cc4ccc5ncccc5c4)c3n2)cc1F` [Ex 15, 2-Fluoro-4-(3-(quinolin-6-ylmethyl)-3H-[1,2,3]triazolo[4,5-b]pyridin-5-yl)benzamide] displayed a melting point of 198 to 200 °C. Further, the IC50 in [3] was at most 10 nM. Also, the IC50 in [4] was at most 25 nM. In series [5], this compound displayed an inhibition at 1 µM of 75 to 100% and an IC50 of 50 to 100 nM. Further, the “Apoptosis in MKN-45 cells (percentage induction)” value in series [6] is “A (A = >50 to 100%)”. In [7], the GI50 lay in the range of 50 to 150 nM. In addition, the IC50 in series [8] lay within 50 to 150 nM. In series [9], this compound displayed an IC50 of 10 to 50 nM. The IC50 in [10] lay in the range of 100 to 200 nM.

As for `O=C(Nc1nc[nH]n1)c1ccc(-c2ccc3nnn(Cc4ccc5ncccc5c4)c3n2)cc1F` [Ex 52, 2-Fluoro-4-(3-(quinolin-6-ylmethyl)-3H-[1,2,3]triazolo[4,5-b]pyridin-5-yl)-N-(1H-1,2,4-triazol-3-yl)benzamide], the melting point fell in the range of 265 to 267 °C. Besides, in [4], the IC50 was at most 25 nM. For the same compound, in series [5], the inhibition at 1 µM was in the range of 75 to 100% and the IC50 was at most 50 nM. In addition, in series [6], the “Apoptosis in MKN-45 cells (percentage induction)” value is reported as “A (A = >50 to 100%)”. Moreover, in series [7], the GI50 is at most 50 nM and the “Inhibition (% Inhibition of MKN-45 proliferation)” value is reported as “D (D = <25%)”. Further, the IC50 in series [8] was at most 50 nM. The same compound showed an IC50 in series [9] of at most 10 nM. Further, the IC50 in series [10] lay within 50 to 100 nM.

The compound `NC(=O)c1ccc(-c2ccc3nnn(Cc4ccc5ncccc5c4)c3n2)cc1Cl` [Ex 108, 2-Chloro-4-(3-(quinolin-6-ylmethyl)-3H-[1,2,3]triazolo[4,5-b]pyridin-5-yl)benzamide] returned a melting point of 212 to 215 °C. For the same compound, the IC50 in series [3] is at most 10 nM. In [4], this compound returned an IC50 of at most 25 nM. In [5], this compound had an inhibition at 1 µM of 75 to 100% and an IC50 of at most 50 nM. For the same compound, the “Apoptosis in MKN-45 cells (percentage induction)” value in series [6] is “A (A = >50 to 100%)”. In series [7], the GI50 was at most 50 nM and the inhibition at 0.1 µM is 50 to 75%. For the same compound, the IC50 in series [8] is at most 50 nM. Further, in series [9], the IC50 is at most 10 nM. The IC50 in [10] was at most 25 nM.

Compound `CCNC(=O)c1ccc(-c2ccc3nnn(Cc4ccc5ncccc5c4)c3n2)cc1Cl` [Ex 119, 2-Chloro-N-ethyl-4-(3-(quinolin-6-ylmethyl)-3H-[1,2,3]triazolo[4,5-b]pyridin-5-yl)benzamide] had a melting point of 187 to 190 °C. In addition, the IC50 in series [3] is at most 10 nM. Moreover, the IC50 in series [4] was at most 25 nM. For the same compound, in series [5], the inhibition at 1 µM lay in the range of 75 to 100% and the IC50 was at most 50 nM. In addition, the “Apoptosis in MKN-45 cells (percentage induction)” value in series [6] is “A (A = >50 to 100%)”. In addition, in series [7], the GI50 was at most 50 nM and the “Inhibition (% Inhibition of MKN-45 proliferation)” value was “A (A = ≥75 to 100%)”. The IC50 in [8] is at most 50 nM. This compound also displayed an IC50 in series [9] of at most 10 nM. In [10], this compound had an IC50 of at most 25 nM.

Consider `NC(=O)c1c(F)cc(-c2ccc3nnn(Cc4ccc5ncccc5c4)c3n2)cc1F` [Ex 130, 2,6-Difluoro-4-(3-(quinolin-6-ylmethyl)-3H-[1,2,3]triazolo[4,5-b]pyridin-5-yl)benzamide], for which the IC50 in [3] is at most 10 nM; in [4] it was 25 to 50 nM; in series [5], at most 50 nM; in [8], at most 50 nM; in series [10], 50 to 100 nM. In series [5], this compound gave an inhibition at 1 µM of 75 to 100%. Besides, in [6], the “Apoptosis in MKN-45 cells (percentage induction)” value is on record as “B (B = ≤50)”. The compound also had a GI50 in series [7] of at most 50 nM. Further, the “Inhibition (% Inhibition of MKN-45 proliferation)” value in series [7] was “A (A = ≥75 to 100%)”.

With `NC(=O)c1ccc(-c2ccc3nnn(Cc4cc5cccnc5cc4F)c3n2)cc1Cl` [Ex 134, 2-Chloro-4-(3-((7-fluoroquinolin-6-yl)methyl)-3H-[1,2,3]triazolo[4,5-b]pyridin-5-yl)benzamide], the IC50 in series [3] was 10 to 50 nM; in [4], at most 25 nM; in series [5] it was at most 50 nM; in [8] it was at most 50 nM; in [9] it was at most 10 nM; in [10], at most 25 nM. In series [5], the inhibition at 1 µM lay within 75 to 100%. In [6], the “Apoptosis in MKN-45 cells (percentage induction)” value was “A (A = >50 to 100%)”. In addition, in [7], the GI50 was at most 50 nM. The inhibition at 0.1 µM in series [7] lay in the range of 50 to 75%.
